In patent publication US4011332A, “Hemorrhagic-lesion producing and anticoagulant-containing compositions and their use” (priority 1974, dated 1977):
Like-named read-outs stand apart in the source and are kept apart here.

Assays:
Sprague-Dawley rats [1] = test: animal or person; type: in vivo; conditions: for LD100 (interpolated): component (b) with 2 mg/kg 4-hydroxy-2-oxo-3-(1-phenylpropyl)-2H-chromene, single oral dose, 10 days
Source text: Note the number of animals which die within 10 days of the respective administrations.

Sprague-Dawley rats [2] = test: LD5 determination / hemorrhagic stomach and gut lesions after single oral dose; conditions: for LD5: single oral dose, Sprague-Dawley rats, empty stomach; for LD5 (criterion for rat strain to be used): rat strain advisable for the test
Experimental: A selection of compounds from those suitable for component (b) is, however, made in a simpler manner by determining the LD5 (in mg/kg). […] Determination of the cause of death is effected, e.g., by autopsy of the dead animals.
The rats were kept in groups of 5 and four animals in plastic cages of the type M III. The room temperature was maintained at approximately 23° C. For determining the lethal doses, as mentioned in the following description, the rats were fed on empty stomachs. The animals received the noted compounds [for example, component (a) or (b) or the composition containing both] in a volume of liquid amounting to 5 ml per kg of body weight of the rat. The administration of the liquid was carried out once using a feeding tube introduced into the oesophagus. The doses of the active substances [component (a), component (b) or the composition] were varied. Component (b) was administered as a sodium salt in aqueous solution, and the number of animals which died within 10 days after administration was noted.
The lethal doses (LD5, LD50 and LD100 in mg/kg) were determined by simple linear regression, while the limits of trust were determined by the method of Litchfield and Wilcoxon.
Thereafter autopsy the dead animals to determine the cause of death.

[3] = system: female Sprague-Dawley rats; test: Rodenticidal bait test, mortality in 10 days (Example 12, Table IV); type: in vivo; conditions: one day, 10 days observation
Source text: Following the rules for the examination of rodenticides against rats and mice (edited by Bundesgeshundheitsamt, Institut fuer Wasser-, Boden- und Lufthygiene, Biologische Bundesanstalt fur Land- und Forstwirtschaft, Staatliches Medizinaluntersuchungsamt, Abt. fuer hygienische Schadlingsbekampfung), female Sprague-Dawley rats weighing about 200 grams, kept in single boxes, were provided with the rodenticidal active substances* alone or in combination (expressed in mg/kg) in 4 grams of bait per rat, i.e. 20 g of bait/kg of body weight. These soft consistent, i.e. not crumbly, baits were prepared from Semmelmehl (i.e. powder prepared by grinding dry white bread) and some water. The rats on an empty stomach were provided with these baits as the only food during one day, tap water was ad libitum.
* 4-hydroxy-2-oxo-3-(3-oxo-1-phenyl-butyl)-2H-chromene and 1,5-diphenyl-3-(p-chlorophenyl)-4-pyrazole acetic acid
Thereafter, the animals were provided with usual standard diet Atromine R for the remaining duration of the test.
The mortality rate was determined during a test period of 10 days.

Sprague-Dawley rats [4] = conditions: for LD50 oral, in combination with component (b) 1 mg/kg: with 1 mg/kg 1-phenyl-3,5-di-(2-thienyl)-4-pyrazole acetic acid; for LD50 oral, in combination with component (b) 2 mg/kg: with 2 mg/kg 1-phenyl-3,5-di-(2-thienyl)-4-pyrazole acetic acid
Experimental: *Ingestion volume: 5 ml/kg, period of observation: 10 days

[5] = system: wild rats (Rattus norvegicus and Rattus ratus); test: LD100 of combinations in wild rats, single oral dose (Example 3); type: in vivo; conditions: full stomachs, 10 days
[6] = alone, 5 ml/kg, observation 10 days

Structure (SMILES)	LD100 (interpolated) (Sprague-Dawley rats [1])	LD5 (Sprague-Dawley rats [2])	also measured
CC(C(=O)O)c1ccc(C2CCCCC2)c(Cl)c1 (single isomer, unassigned) [N, d(+)-3-chloro-4-cyclohexyl-α-methyl-phenylacetic acid]	5 to 10 mg/kg	< 15 mg/kg of body weight	
CC(=O)CC(c1ccccc1)c1c(O)c2ccccc2oc1=O (stereo not drawn) [Component 1.2, 4-hydroxy-2-oxo-3-(3-oxo-1-phenylbutyl)-2H-chromene]			% of Animals which Died ([3]; Component 1.2 100 mg/kg in bait): 80%; % of Animals which Died ([3]; Component 1.2 200 mg/kg in bait): 80%; LD50 oral, alone (Sprague-Dawley rats [4]; rat, in vivo, po, 240 h): 7.0 mg/kg of body weight; LD50 oral, in combination with component (b) 1 mg/kg (Sprague-Dawley rats [4]; 5 ml/kg, observation 10 days): 4 mg/kg of body weight; LD50 oral, in combination with component (b) 2 mg/kg (Sprague-Dawley rats [4]; 5 ml/kg, observation 10 days): 0.4 mg/kg of body weight
COc1ccc(-c2c(CC(=O)O)c(-c3ccccc3)nn2-c2ccccc2)cc1 [G, 1,3-diphenyl-5-(p-methoxyphenyl)-4-pyrazole acetic acid]	~ 10.0 mg/kg	< 15 mg/kg of body weight	
CN1C(C(=O)Nc2nccs2)=C(O)c2ccccc2S1(=O)=O [L, n-(2-thiazolyl)-4-hydroxy-2-methyl-2H-1,2-benzothiazine-3-carboxamide-1,1-dioxide]	≤ 20.00 mg/kg	< 50 mg/kg of body weight	
O=C(O)Cc1c(-c2ccccc2)nn(-c2ccccc2)c1-c1ccccc1 [C, 1,3,5-triphenyl-4-pyrazole acetic acid]	3.0 mg/kg	< 5 mg/kg of body weight	
O=C(O)Cc1c(-c2ccc(Cl)cc2)nn(-c2ccccc2)c1-c1ccccc1 [B, 1,5-diphenyl-3-(p-chlorophenyl)-4-pyrazole acetic acid]	1.5 mg/kg	< 5 mg/kg of body weight	
COc1ccc2c(c1)c(CC(=O)O)c(C)n2C(=O)c1ccc(Cl)cc1 [E, reference compound]	7.5 mg/kg	< 15 mg/kg of body weight	LD5 (criterion for rat strain to be used) (Sprague-Dawley rats [2]): approximately 7 mg/kg of body weight
O=C(O)Cc1c(-c2cccs2)nn(-c2ccc(Cl)cc2)c1-c1cccs1 [D, 1-(p-chlorophenyl)-3,5-di-(2-thienyl)-4-pyrazole acetic acid]	5.0 mg/kg	< 5 mg/kg of body weight	
CN1C(O)=C(C(=O)Nc2ccc(Br)cc2)c2ccccc2S1(=O)=O [Q, n-(4-bromophenyl)-3-hydroxy-2-methyl-2H-1,2-benzothiazine-4-carboxamide-1,1-dioxide]		< 50 mg/kg of body weight	
O=C(O)c1ccccc1O [I, salicylic acid, reference compound]		above 100 mg/kg of body weight	
O=C(O)Cc1c(-c2ccco2)nn(-c2ccccc2)c1-c1ccco1 [O, 1-phenyl-3,5-di-(2-furyl)-4-pyrazole acetic acid]	~ 50 mg/kg	< 50 mg/kg of body weight	
CC(C)(C)C(=O)C1C(=O)c2ccccc2C1=O [Component 1.4, 2-pivaloyl-1,3-indandione]			LD50 oral, alone (Sprague-Dawley rats [4]; [6]): above 5 mg/kg of body weight; LD50 oral, in combination with component (b) 2 mg/kg (Sprague-Dawley rats [4]; 5 ml/kg, observation 10 days): above 1 mg/kg of body weight
O=C(O)Cc1c(-c2cccs2)nn(-c2ccccc2)c1-c1cccs1 [A, 1-phenyl-3,5-di-(2-thienyl)-4-pyrazole acetic acid]	~ 2.0 mg/kg	< 5 mg/kg of body weight	LD100, component (b) ([5]; component (a) 0 mg/kg): 7 mg/kg of rat body weight; LD100, component (b) in combination ([5]; with component (a) 2 mg/kg): 3 mg/kg of rat body weight; LD100, component (b) in combination ([5]; with component (a) 3 mg/kg): 2 mg/kg of rat body weight; LD100, component (b) in combination ([5]; with component (a) 4 mg/kg): 1.5 mg/kg of rat body weight
O=C(O)Cc1c(-c2cccs2)nn(-c2ccccc2Cl)c1-c1cccs1 [M, 1(o-chlorophenyl)-3,5-(2-thienyl)-4-pyrazole acetic acid]	10 to 50 mg/kg	< 15 mg/kg of body weight	
CCC(c1ccccc1)c1c(O)c2ccccc2oc1=O (stereo not drawn) [Component 1.1, 4-hydroxy-2-oxo-3-(1-phenylpropyl)-2H-chromene, reference compound]			LD100 ([5]; Rattus norvegicus, 240 h, component (b) 0 mg/kg): 45 mg/kg; LD100, component (a) in combination ([5]; with component (b) 1.5 mg/kg): 4 mg/kg of rat body weight; LD100, component (a) in combination ([5]; with component (b) 2 mg/kg): 3 mg/kg of rat body weight; LD100, component (a) in combination ([5]; with component (b) 3 mg/kg): 2 mg/kg of rat body weight; LD100 (Sprague-Dawley rats [1]; Rattus norvegicus, po, 240 h, anticoagulant alone, Sprague-Dawley rats): 17 mg/kg; LD50 oral, alone (Sprague-Dawley rats [4]; [6]): 3.0 mg/kg of body weight; LD50 oral, in combination with component (b) 1 mg/kg (Sprague-Dawley rats [4]; 5 ml/kg, observation 10 days): 1.7 mg/kg of body weight; LD50 oral, in combination with component (b) 2 mg/kg (Sprague-Dawley rats [4]; 5 ml/kg, observation 10 days): 0.55 mg/kg of body weight
O=C1c2ccccc2C(=O)C1c1ccccc1 [2-phenylindandione-(1,3)]			LD50 oral, alone (Sprague-Dawley rats [4]; [6]): above 100 mg/kg of body weight; LD50 oral, in combination with component (b) 2 mg/kg (Sprague-Dawley rats [4]; 5 ml/kg, observation 10 days): not less than 50 mg/kg of body weight
CC(=O)Oc1ccccc1C(=O)O [K, acetylsalicylic acid, reference compound]		above 100 mg/kg of body weight	
CC(=O)CC(c1ccc([N+](=O)[O-])cc1)c1c(O)c2ccccc2oc1=O (stereo not drawn) [Component 1.6, 4-hydroxy-2-oxo-3-[3-oxo-1-(4-nitrophenyl)butyl]-2H-chromene]			LD50 oral, alone (Sprague-Dawley rats [4]; [6]): above 100 mg/kg of body weight; LD50 oral, in combination with component (b) 2 mg/kg (Sprague-Dawley rats [4]; 5 ml/kg, observation 10 days): 1.3 mg/kg of body weight
CN1C(=O)C(C(=O)Nc2ccc(F)cc2F)c2ccccc21 (stereo not drawn) [P, 1-methyl-2',4'-difluoroxindole-3-carboxanilide]		< 50 mg/kg of body weight	
COc1ccc(-n2nc(-c3ccccc3)c(CC(=O)O)c2-c2ccccc2)cc1 [H, 3,5-diphenyl-1-(p-methoxyphenyl)-4-pyrazole acetic acid]	~ 10.00 mg/kg	< 15 mg/kg of body weight	
CN1C(O)=C(C(=O)Nc2ccc([N+](=O)[O-])cc2)c2ccccc2S1(=O)=O [R, n-(4-nitrophenyl)-3-hydroxy-2-methyl-2H-1,2-benzothiazine-4-carboxamide-1,1-dioxide]		< 50 mg/kg of body weight	
O=C(O)Cc1c(C2CCCCC2)nn(-c2ccccc2)c1-c1ccccc1 [F, 3-cyclohexyl-1,5-diphenyl-4-pyrazole acetic acid]	7.5 mg/kg	< 15 mg/kg of body weight	
CCCCC1C(=O)N(c2ccccc2)N(c2ccccc2)C1=O [phenylbutazone, reference compound]			LD5 (criterion for rat strain to be used) (Sprague-Dawley rats [2]): 600 mg/kg of body weight
